Data: PubChem BioAssay (NCI)
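48-hour exposure; five concentrations; linearly interpolated endpoints. GI50 is the concentration that inhibits growth by half. TGI: total growth inhibition.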

Tested on: HOP-62 NSCLC
Assay: DTP human tumour cell line panel, 48 h

Row | Structure (SMILES) | GI50 | TGI
1 | N.N.N.N.N.O=C([O-])c1nn[n-]n1.[Cl-].[Co+3] | > 100 µM | > 100 µM
2 | COc1c2c(cc3nc4ccccc4nc13)CCC(C(C)(C)O)C2 (centres undefined) |  | > 100 µM
3 | CN(C)CC/C(=N\Nc1c(Cl)cccc1Cl)c1ccccc1 |  | > 100 µM
4 | CC(C)=CCC/C(=C/CC/C(C)=C/CCc1ccoc1)C(=O)O |  | > 100 µM
5 | COc1ccc(-c2cn3ccsc3n2)cc1 |  | > 100 µM
6 | CCOC(=O)C(Cc1ccc2ccccc2c1)(Cc1ccc2ccccc2c1)C(C)=O |  | > 10 µM

Tested on: SNB-75 CNS
Assay: DTP human tumour cell line panel, 48 h

Row | Structure (SMILES) | GI50 | TGI
7 | N.N.N.N.N.O=C([O-])c1nn[n-]n1.[Cl-].[Co+3] | > 100 µM | > 100 µM
8 | COc1c2c(cc3nc4ccccc4nc13)CCC(C(C)(C)O)C2 (centres undefined) |  | > 100 µM
9 | CN(C)CC/C(=N\Nc1c(Cl)cccc1Cl)c1ccccc1 |  | 55.6 µM
10 | CC(C)=CCC/C(=C/CC/C(C)=C/CCc1ccoc1)C(=O)O |  | > 100 µM
11 | COc1ccc(-c2cn3ccsc3n2)cc1 |  | > 100 µM

Tested on: OVCAR-8 ovarian
Assay: DTP human tumour cell line panel, 48 h

Row | Structure (SMILES) | GI50 | TGI
12 | N.N.N.N.N.O=C([O-])c1nn[n-]n1.[Cl-].[Co+3] | > 100 µM | > 100 µM
13 | COc1c2c(cc3nc4ccccc4nc13)CCC(C(C)(C)O)C2 (centres undefined) |  | > 100 µM
14 | CN(C)CC/C(=N\Nc1c(Cl)cccc1Cl)c1ccccc1 |  | 37.6 µM
15 | CC(C)=CCC/C(=C/CC/C(C)=C/CCc1ccoc1)C(=O)O |  | > 100 µM
16 | COc1ccc(-c2cn3ccsc3n2)cc1 |  | > 100 µM
17 | CCOC1=NC(=O)CC(c2ccccc2)S1 (centres undefined) |  | > 100 µM

Tested on: DMS 273 small cell lung
Assay: DTP human tumour cell line panel, 48 h

Row | Structure (SMILES) | GI50 | TGI
18 | N.N.N.N.N.O=C([O-])c1nn[n-]n1.[Cl-].[Co+3] | > 100 µM | > 100 µM
19 | COc1c2c(cc3nc4ccccc4nc13)CCC(C(C)(C)O)C2 (centres undefined) |  | > 100 µM
20 | CN(C)CC/C(=N\Nc1c(Cl)cccc1Cl)c1ccccc1 |  | 31.8 µM
21 | COc1ccc(-c2cn3ccsc3n2)cc1 |  | > 100 µM
22 | CCOC1=NC(=O)CC(c2ccccc2)S1 (centres undefined) |  | > 100 µM
23 | CCOC(=O)C(Cc1ccc2ccccc2c1)(Cc1ccc2ccccc2c1)C(C)=O |  | > 10 µM

Tested on: K-562 leukemia
Assay: DTP human tumour cell line panel, 48 h

Row | Structure (SMILES) | GI50 | TGI
24 | N.N.N.N.N.O=C([O-])c1nn[n-]n1.[Cl-].[Co+3] | > 100 µM | > 100 µM
25 | COc1c2c(cc3nc4ccccc4nc13)CCC(C(C)(C)O)C2 (centres undefined) |  | > 100 µM
26 | CN(C)CC/C(=N\Nc1c(Cl)cccc1Cl)c1ccccc1 |  | 52.3 µM
27 | CC(C)=CCC/C(=C/CC/C(C)=C/CCc1ccoc1)C(=O)O |  | > 100 µM
28 | COc1ccc(-c2cn3ccsc3n2)cc1 |  | > 100 µM
29 | CCOC1=NC(=O)CC(c2ccccc2)S1 (centres undefined) |  | > 100 µM
30 | CCOC(=O)C(Cc1ccc2ccccc2c1)(Cc1ccc2ccccc2c1)C(C)=O |  | > 10 µM

Tested on: KM12 colon
Assay: DTP human tumour cell line panel, 48 h

Row | Structure (SMILES) | GI50 | TGI
31 | N.N.N.N.N.O=C([O-])c1nn[n-]n1.[Cl-].[Co+3] | > 100 µM | > 100 µM
32 | COc1c2c(cc3nc4ccccc4nc13)CCC(C(C)(C)O)C2 (centres undefined) |  | > 100 µM
33 | CN(C)CC/C(=N\Nc1c(Cl)cccc1Cl)c1ccccc1 |  | 34.8 µM
34 | CC(C)=CCC/C(=C/CC/C(C)=C/CCc1ccoc1)C(=O)O |  | > 100 µM
35 | COc1ccc(-c2cn3ccsc3n2)cc1 |  | > 100 µM
36 | CCOC1=NC(=O)CC(c2ccccc2)S1 (centres undefined) |  | > 100 µM

Tested on: UO-31 renal
Assay: DTP human tumour cell line panel, 48 h

Row | Structure (SMILES) | GI50 | TGI
37 | N.N.N.N.N.O=C([O-])c1nn[n-]n1.[Cl-].[Co+3] | > 100 µM | > 100 µM
38 | COc1c2c(cc3nc4ccccc4nc13)CCC(C(C)(C)O)C2 (centres undefined) |  | > 100 µM
39 | CN(C)CC/C(=N\Nc1c(Cl)cccc1Cl)c1ccccc1 |  | 22.5 µM
40 | CC(C)=CCC/C(=C/CC/C(C)=C/CCc1ccoc1)C(=O)O |  | > 100 µM
41 | COc1ccc(-c2cn3ccsc3n2)cc1 |  | > 100 µM
42 | CCOC1=NC(=O)CC(c2ccccc2)S1 (centres undefined) |  | > 100 µM

Tested on: UACC-62 melanoma
Assay: DTP human tumour cell line panel, 48 h

Row | Structure (SMILES) | GI50 | TGI
43 | N.N.N.N.N.O=C([O-])c1nn[n-]n1.[Cl-].[Co+3] | > 100 µM | > 100 µM
44 | COc1c2c(cc3nc4ccccc4nc13)CCC(C(C)(C)O)C2 (centres undefined) |  | > 100 µM
45 | CN(C)CC/C(=N\Nc1c(Cl)cccc1Cl)c1ccccc1 |  | 29.9 µM
46 | CC(C)=CCC/C(=C/CC/C(C)=C/CCc1ccoc1)C(=O)O |  | > 100 µM
47 | COc1ccc(-c2cn3ccsc3n2)cc1 |  | > 100 µM
48 | CCOC1=NC(=O)CC(c2ccccc2)S1 (centres undefined) |  | > 100 µM
49 | CCOC(=O)C(Cc1ccc2ccccc2c1)(Cc1ccc2ccccc2c1)C(C)=O |  | > 10 µM

Tested on: M14 melanoma
Assay: DTP human tumour cell line panel, 48 h

Row | Structure (SMILES) | GI50 | TGI
50 | N.N.N.N.N.O=C([O-])c1nn[n-]n1.[Cl-].[Co+3] | > 100 µM | > 100 µM
51 | COc1c2c(cc3nc4ccccc4nc13)CCC(C(C)(C)O)C2 (centres undefined) |  | > 100 µM
52 | CN(C)CC/C(=N\Nc1c(Cl)cccc1Cl)c1ccccc1 |  | 34.2 µM
53 | CC(C)=CCC/C(=C/CC/C(C)=C/CCc1ccoc1)C(=O)O |  | > 100 µM
54 | COc1ccc(-c2cn3ccsc3n2)cc1 |  | > 100 µM
55 | CCOC1=NC(=O)CC(c2ccccc2)S1 (centres undefined) |  | > 100 µM
56 | CCOC(=O)C(Cc1ccc2ccccc2c1)(Cc1ccc2ccccc2c1)C(C)=O |  | > 10 µM

Tested on: TK-10 renal
Assay: DTP human tumour cell line panel, 48 h

Row | Structure (SMILES) | GI50 | TGI
57 | N.N.N.N.N.O=C([O-])c1nn[n-]n1.[Cl-].[Co+3] | > 100 µM | > 100 µM
58 | COc1c2c(cc3nc4ccccc4nc13)CCC(C(C)(C)O)C2 (centres undefined) |  | > 100 µM
59 | CN(C)CC/C(=N\Nc1c(Cl)cccc1Cl)c1ccccc1 |  | 30.9 µM
60 | COc1ccc(-c2cn3ccsc3n2)cc1 |  | > 100 µM

Tested on: KM20L2 colon
Assay: DTP human tumour cell line panel, 48 h

Row | Structure (SMILES) | GI50 | TGI
61 | N.N.N.N.N.O=C([O-])c1nn[n-]n1.[Cl-].[Co+3] | > 100 µM | > 100 µM
62 | COc1c2c(cc3nc4ccccc4nc13)CCC(C(C)(C)O)C2 (centres undefined) |  | > 100 µM
63 | CN(C)CC/C(=N\Nc1c(Cl)cccc1Cl)c1ccccc1 |  | 33.1 µM
64 | CC(C)=CCC/C(=C/CC/C(C)=C/CCc1ccoc1)C(=O)O |  | > 100 µM
65 | COc1ccc(-c2cn3ccsc3n2)cc1 |  | > 100 µM
66 | CCOC1=NC(=O)CC(c2ccccc2)S1 (centres undefined) |  | > 100 µM
67 | CCOC(=O)C(Cc1ccc2ccccc2c1)(Cc1ccc2ccccc2c1)C(C)=O |  | > 10 µM

Tested on: RPMI-8226 leukemia
Assay: DTP human tumour cell line panel, 48 h

Row | Structure (SMILES) | GI50 | TGI
68 | N.N.N.N.N.O=C([O-])c1nn[n-]n1.[Cl-].[Co+3] | > 100 µM | > 100 µM
69 | CN(C)CC/C(=N\Nc1c(Cl)cccc1Cl)c1ccccc1 |  | 46.8 µM
70 | COc1ccc(-c2cn3ccsc3n2)cc1 |  | 54.6 µM
71 | CCOC1=NC(=O)CC(c2ccccc2)S1 (centres undefined) |  | > 100 µM
72 | CCOC(=O)C(Cc1ccc2ccccc2c1)(Cc1ccc2ccccc2c1)C(C)=O |  | 6.58 µM

Tested on: NCI-H23 lung
Assay: DTP human tumour cell line panel, 48 h

Row | Structure (SMILES) | GI50 | TGI
73 | N.N.N.N.N.O=C([O-])c1nn[n-]n1.[Cl-].[Co+3] | > 100 µM | > 100 µM
74 | COc1c2c(cc3nc4ccccc4nc13)CCC(C(C)(C)O)C2 (centres undefined) |  | > 100 µM
75 | CN(C)CC/C(=N\Nc1c(Cl)cccc1Cl)c1ccccc1 |  | 33.4 µM
76 | CC(C)=CCC/C(=C/CC/C(C)=C/CCc1ccoc1)C(=O)O |  | > 100 µM
77 | COc1ccc(-c2cn3ccsc3n2)cc1 |  | > 100 µM

Tested on: NCI-H522 lung
Assay: DTP human tumour cell line panel, 48 h

Row | Structure (SMILES) | TGI
78 | COc1c2c(cc3nc4ccccc4nc13)CCC(C(C)(C)O)C2 (centres undefined) | > 100 µM
79 | CN(C)CC/C(=N\Nc1c(Cl)cccc1Cl)c1ccccc1 | 33.9 µM
80 | CC(C)=CCC/C(=C/CC/C(C)=C/CCc1ccoc1)C(=O)O | > 100 µM
81 | COc1ccc(-c2cn3ccsc3n2)cc1 | > 100 µM

Tested on: LXFL 529 NSCLC
Assay: DTP human tumour cell line panel, 48 h

Row | Structure (SMILES) | GI50 | TGI
82 | N.N.N.N.N.O=C([O-])c1nn[n-]n1.[Cl-].[Co+3] | > 100 µM | > 100 µM
83 | COc1c2c(cc3nc4ccccc4nc13)CCC(C(C)(C)O)C2 (centres undefined) |  | > 100 µM
84 | CN(C)CC/C(=N\Nc1c(Cl)cccc1Cl)c1ccccc1 |  | 29.5 µM
85 | CC(C)=CCC/C(=C/CC/C(C)=C/CCc1ccoc1)C(=O)O |  | > 100 µM
